# pIC50: −log10 of the molar value. Several values for one entry are separate records, joined by “and”; a condition that tells them apart may be missing. Equal values may be shown once. Read-outs that look alike come from different tables or passages of the source.
# Assays:
# [1] = system: E. coli W3110; assay: MIC by broth microdilution; format: cell-based, Escherichia coli; details: Escherichia coli, W3110, read-out: MIC E. coli W3110
# In short: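 Exponential-phase cultures (OD600 0.5, 37 °C aerobic), diluted 100-fold in CAMHB, were added to twofold compound dilution series. Keio strains grown with 50 µg ml^−1 kanamycin. Plates incubated overnight at 37 °C, shaking at 600 r.p.m.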
# [2] = system: clinical isolates of E. coli; assay: MIC against clinical isolates and potentiation by 4 µM PMBN; format: cell-based, Escherichia coli; details: for MSC: with 4 µM PMBN; for MIC: Escherichia coli
# Description: MIC was determined by broth microdilution. Single-colony cultures were grown to exponential phase (OD600 of 0.5) aerobically at 37 °C. In case of strains from the Keio collection, 50 µg ml^−1 kanamycin was supplemented to the media to ascertain a homogeneous population. The bacterial suspensions were diluted 100-fold in CAMHB and 50 µl was added to a twofold serial dilution series of test compounds (50 µl per well) in polypropylene 96-well microtitre plates to reach a volume of 100 µl. The plates were sealed with breathable membranes and incubated overnight at 37 °C with constant shaking (600 r.p.m.).
# [3] = system: HEK293T; assay: Cytotoxicity assay (MTT); format: cell-based, human; details: for MTT data (raw readout): HEK293T; for pIC50: 24 h, MTT
# In short: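 HEK293T cells, maintained at 37 °C and 7% CO2 in Dulbecco’s modified Eagle medium with GlutaMax, antibiotics and serum, were plated in clear 96-well plates in 100 µl medium containing 1% fetal bovine serum and left 24 h to attach. After 24 h compound exposure, MTT (0.40 mg ml^−1) was added for 2 h. Formazan was dissolved in 100 µl DMSO and absorbance measured at 570 nm. Background-corrected IC50 values came from variable-slope non-linear fits.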
# [4] = system: HepG2; assay: Cytotoxicity assay (MTT); format: cell-based, human; details: for pIC50: MTT, 24 h
structure (smiles),measurement,setting,value
O=S(=O)(NCCNCc1ccc(-c2ccc(F)nc2)cc1)c1cccc2cnccc12 [Compound 60],MIC,[1],6.25 µM
same,FC,"[2]; E. coli 1075, fold change in MIC after 4 µM PMBN",> 2
same,MSC,[2]; E. coli 1075,25 µM
same,FC,"[2]; E. coli 552059.1, fold change in MIC after 4 µM PMBN",16
same,MSC,[2]; E. coli 552059.1,3.1 µM
same,FC,"[2]; E. coli 552060.1, fold change in MIC after 4 µM PMBN",16
same,MSC,[2]; E. coli 552060.1,3.1 µM
same,FC,"[2]; E. coli MVAST0072, fold change in MIC after 4 µM PMBN",16
same,MSC,[2]; E. coli MVAST0072,3.1 µM
same,FC,"[2]; E. coli NCTC13463, fold change in MIC after 4 µM PMBN",8
same,MSC,[2]; E. coli NCTC13463,1.6 µM
same,FC,"[2]; E. coli NCTC13846, fold change in MIC after 4 µM PMBN",> 2
same,MSC,[2]; E. coli NCTC13846,25 µM
same,FC,"[2]; E. coli mcr-1, fold change in MIC after addition of 4 µM PMBN",4
same,MSC,[2]; E. coli mcr-1,12.5 µM
same,MIC,"[2]; E. coli 1075 (MDR), read-out: MIC",> 50 µM
same,MIC,"[2]; E. coli 552059.1, read-out: MIC",50 µM
same,MIC,"[2]; E. coli 552060.1, read-out: MIC",50 µM
same,MIC,"[2]; E. coli MVAST0072 (MDR), read-out: MIC",50 µM
same,MIC,[2]; E. coli mcr-1 (MCR),50 µM
same,MIC,"[2]; NCTC13463, E. coli NCTC13463 (ESBL), read-out: MIC",12.5 µM
same,MIC,"[2]; NCTC13846, E. coli NCTC13846 (MDR, mcr-1)",> 50 µM
same,cytotoxicity,[3]; HEK293T and HepG2,lowest cytotoxicity
same,MTT data (raw readout),"[3]; 0.023 uM, experiment n = 1, technical triplicates",0.733 and 0.692
same,MTT data (raw readout),"[3]; 0.023 uM, experiment n = 2, technical triplicates",0.767 and 0.777 and 0.816
same,MTT data (raw readout),"[3]; 0.068 uM, experiment n = 1, technical triplicates",0.746 and 0.796 and 0.737
same,MTT data (raw readout),"[3]; 0.068 uM, experiment n = 2, technical triplicates",0.800 and 0.790 and 0.829
same,MTT data (raw readout),"[3]; 0.21 uM, experiment n = 1, technical triplicates",0.734 and 0.766 and 0.710
same,MTT data (raw readout),"[3]; 0.21 uM, experiment n = 2, technical triplicates",0.783 and 0.732 and 0.731
same,MTT data (raw readout),"[3]; 0.62 uM, experiment n = 1, technical triplicates",0.735 and 0.740 and 0.733
same,MTT data (raw readout),"[3]; 0.62 uM, experiment n = 2, technical triplicates",0.809 and 0.824 and 0.770
same,MTT data (raw readout),"[3]; 1.85 uM, experiment n = 1, technical triplicates",0.725 and 0.718 and 0.739
same,MTT data (raw readout),"[3]; 1.85 uM, experiment n = 2, technical triplicates",0.764 and 0.783 and 0.787
same,pIC50,"[3]; Homo sapiens, HEK-293T",4.29
same,pIC50,[3],< 4.30
same,MTT data (raw readout),"[4]; HepG2, 0.023 uM, experiment n = 1, technical triplicates",0.514 and 0.522 and 0.506
same,MTT data (raw readout),"[4]; HepG2, 0.023 uM, experiment n = 2, technical triplicates",0.553 and 0.550 and 0.561
same,MTT data (raw readout),"[4]; HepG2, 0.068 uM, experiment n = 1, technical triplicates",0.526 and 0.514 and 0.522
same,MTT data (raw readout),"[4]; HepG2, 0.068 uM, experiment n = 2, technical triplicates",0.571 and 0.568 and 0.585
same,MTT data (raw readout),"[4]; HepG2, 0.21 uM, experiment n = 1, technical triplicates",0.544 and 0.520 and 0.508
same,MTT data (raw readout),"[4]; HepG2, 0.21 uM, experiment n = 2, technical triplicates",0.610 and 0.553 and 0.611
same,MTT data (raw readout),"[4]; HepG2, 0.62 uM, experiment n = 1, technical triplicates",0.525 and 0.501 and 0.502
same,MTT data (raw readout),"[4]; HepG2, 0.62 uM, experiment n = 2, technical triplicates",0.621 and 0.610 and 0.573
same,MTT data (raw readout),"[4]; HepG2, 1.85 uM, experiment n = 1, technical triplicates",0.546 and 0.544 and 0.528
same,MTT data (raw readout),"[4]; HepG2, 1.85 uM, experiment n = 2, technical triplicates",0.581 and 0.605
same,pIC50,"[4]; Homo sapiens, HepG2, 24 h",< 4.00
same,pIC50,[4],< 4.30
